# Source: patent EP1379634B1 (THE UNIVERSITY OF GEORGIA RESEARCH FOUNDATION, INC., priority 2001, dated 2002)
# Residues, ends and D or L forms follow the SMILES beside them. *: point of attachment. Cbz = O=C(OCc1ccccc1)*; CH2F = FC*
# Test system: purified Taenia solium cysteine protease
# Assay: Protease inactivator inhibition assay against cocktail, EC100 and Ki (Step VII)
# Assay type: biochemical
# From the text: Once the protease inactivators were synthesized in the organic laboratory, they were to be tested for the lowest efficacious concentrations at which they induced 100% inhibition of the target protease (EC100). The top percent cocktail that was employed in the final vehicle selection step of Step III was employed as the source of competition for the inhibitors. In this case, this was the 7.9% cocktail that was comprised of Z-FR-AFC, Z-FAR-AFC, Z-AP-AFC, Z-AAK-AFC, and Z-VLR-AFC. The final result would be a ranking of transition state candidate protease inactivators with a high ranking directly correlating to a low EC100 value. The following steps describe the assay: • Step A: Initial Screening. To set up the test control, each protease inactivator was first incubated with the 5% cocktail (which provided the final differentiation of vehicles in Step III). To begin with, the protease inactivator was incubated at a concentration of 3 X 10^-9M in 500 ul of assay buffer (0.2 M Citrate, pH 4.9, supplemented with 10mM L-cysteine). This concentration was determined by a series of inhibitor dilutions to be the best inhibitor concentration at which a differentiation in inhibitor potential could be noted. Next, a concentration equal to 4 X 10^-5M for each of the individual cocktail components, was added to the mix. The components were allowed to equilibrate for a period of 30 minutes. Finally, active purified enzyme was added to the tubes at a concentration which was always at least 50 times less than the concentration of the lowest concentration in the mix (so as to provide saturating conditions.) This concentration varied from purification to purification, and the amount that was added depended upon the yield and specific activity of the purified protease. Positive controls were set up similarly as described for test controls, except that solvent was added in substitution for the protease inactivator (in a volume equal to the […] volume addition). All of the protease inactivators could be dissolved in dimethylsulfoxide (DMSO), and therefore, this was the solvent of choice. Negative controls were set up by adding the protease inactivator and the cocktail substrates in a tube, without the protease. All potential non-proteolytic induced liberation of AFC was therefore controlled for in this tube. All controls were set up in triplicate, and experiments repeated a minimum of five times. The assays were incubated at 37°C, overnight. Percent inhibition was calculated as: %Inhibition = ((AFC positive for "SI"−AFC negative for "SI")−(AFC test−AFC negative for "SI"))/(AFC positive for "SI"−AFC negative for "SI") × 100 [formula] • Step B: Inhibitor Dilution Studies and formation of a ranked list of protease inactivators based upon EC100 values. […] Because of this, a dilution study was required in order to determine a viable ranking. Thus, the concentration of each of the protease inactivators was lowered with a dose response setup until the most efficacious concentration for 100% inhibition (EC100) could be determined. The inhibitors had to be diluted to nanomolar levels in order to establish a differentiable EC100 pattern. The final result of the assay was a ranked candidate list of protease inactivators. A lower EC100 was attributable to a higher ranking and vice-versa. • Step C: Determination of Inhibitor Ki and mode of inhibition, and re-ranking of EC100 list with inhibitor Ki. Ki of each of the top ranked protease inactivators, based upon low EC100 values, was assessed next for the top 5 EC100 inhibitors.
# In order to determine Ki, all of the high Vmax cocktail substrates were employed for Ki determination (since Ki of the inhibitor for the enzyme is the same regardless of the substrate). To insure the highest accuracy, Ki was to be determined upon a minimum of at least three of the high Kcat substrates. Nonlinear fitting and the Dixon plot were both employed to determine Ki of the top ranked protease inactivators. […]
structure (smiles),measurement,setting,value
"CC(C)C[C@H](NC(=O)OCc1ccccc1)C(=O)N[C@@H](CC(C)C)C(=O)N[C@@H](Cc1ccc(O)cc1)C(=O)CF [Z-LLY-FMK, Z-Leu-Leu-Tyr-FMK] (Cbz-Leu-Leu-Tyr-CH2F)",% Inhibition of T. solium CP in vitro,concentration not stated in Table 4,97%
same,ranking by EC100,"dilution study, nanomolar levels",top inhibitors
